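Results reflect a 48-hour exposure of cells in 96-well plates to compound at five concentrations. The concentration for 50% growth inhibition is given as GI50. TGI is the concentration that stops growth completely.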
Legend:
Assay in all cases: growth of human tumour cells (NCI), 48 h
UACC-257 melanoma = tested on: UACC-257 melanoma
HCC-2998 colon = tested on: HCC-2998 colon
KM12 colon = tested on: KM12 colon
786-0 renal = tested on: 786-0 renal
SNB-75 CNS = tested on: SNB-75 CNS
NCI-H226 lung = tested on: NCI-H226 lung
CCRF-CEM leukemia = tested on: CCRF-CEM leukemia
HCT-116 colon = tested on: HCT-116 colon
UACC-62 melanoma = tested on: UACC-62 melanoma

Row | SMILES | TGI (UACC-257 melanoma) | TGI (HCC-2998 colon) | TGI (KM12 colon) | TGI (786-0 renal) | TGI (SNB-75 CNS) | TGI (NCI-H226 lung) | TGI (CCRF-CEM leukemia) | TGI (HCT-116 colon) | TGI (UACC-62 melanoma) | GI50 (UACC-257 melanoma) | GI50 (UACC-62 melanoma) | GI50 (HCC-2998 colon) | GI50 (KM12 colon) | GI50 (786-0 renal) | GI50 (SNB-75 CNS) | GI50 (NCI-H226 lung) | GI50 (HCT-116 colon) | GI50 (CCRF-CEM leukemia)
1 | CCCCCCCCCCCCCCCCc1c(C(=O)OC)nc(NC#N)[nH]c1=O | > 25 µM | > 25 µM | > 25 µM | > 25 µM | > 25 µM | > 25 µM | > 25 µM | > 25 µM | – | – | – | – | – | – | – | – | – | –
2 | C=C(C)CC(C(=O)O)c1ccc(C)cc1 (stereo not drawn) | > 100 µM | – | > 100 µM | > 100 µM | > 100 µM | – | – | > 100 µM | > 100 µM | – | – | – | – | – | – | – | – | –
3 | O=C1CCCc2ccc([N+](=O)[O-])c(O)c21 | > 100 µM | > 100 µM | > 100 µM | > 100 µM | > 100 µM | > 100 µM | > 100 µM | > 100 µM | > 100 µM | – | – | – | – | – | – | – | – | –
4 | Cn1cnc([N+](=O)[O-])c1Sc1n[nH]c(-c2ccc(Cl)cc2)n1 | 39.6 µM | 40.6 µM | 39.2 µM | 51.5 µM | 50.7 µM | 34.5 µM | 39.6 µM | 58.1 µM | 28.4 µM | – | – | – | – | – | – | – | – | –
5 | C=CCCn1nc(-c2ccccc2)oc1=O | > 100 µM | > 100 µM | > 100 µM | > 100 µM | > 100 µM | > 100 µM | > 100 µM | > 100 µM | > 100 µM | – | – | – | – | – | – | – | – | –
6 | c1cc[c]([Ge]([O]c2cccc3cccnc23)([c]2ccccc2)[c]2ccccc2)cc1 | 14.5 µM | 6.16 µM | 5.09 µM | 15.7 µM | 13.1 µM | 23 µM | – | 12.7 µM | 16.4 µM | 3.94 µM | 4.6 µM | 2.54 µM | 1.95 µM | 4.7 µM | 3.5 µM | 6.33 µM | 3.41 µM | –
7 | C[C@]12Cc3conc3C(O)=C1CC[C@@H]1C2CC[C@@]2(C)C1CC[C@@H]2O (stereo partly drawn) | > 100 µM | – | 70.7 µM | > 100 µM | 31.1 µM | 56.8 µM | 55.5 µM | – | 54.6 µM | – | – | – | – | – | – | – | – | –
8 | COc1ccc(/C=C/c2onc3c(=O)n(C)nc(-c4ccccc4)c23)cc1 | – | – | – | > 100 µM | – | – | > 100 µM | > 100 µM | > 100 µM | – | – | – | – | – | – | – | – | –
9 | NC1=NN(c2ccccc2)C(=O)C1C(=O)C(=O)Nc1ccccc1 (stereo not drawn) | > 100 µM | > 100 µM | > 100 µM | > 100 µM | – | > 100 µM | > 100 µM | > 100 µM | > 100 µM | – | – | – | – | – | – | – | – | –
10 | CC1OC(n2cc(F)c(=O)[nH]c2=O)CCC1=O (stereo not drawn) | > 100 µM | > 100 µM | > 100 µM | > 100 µM | > 100 µM | > 100 µM | > 100 µM | > 100 µM | > 100 µM | – | – | – | – | – | – | – | – | –
11 | N#CC(Sc1ccccc1)C(N)=O (stereo not drawn) | > 100 µM | > 100 µM | > 100 µM | > 100 µM | > 100 µM | > 100 µM | > 100 µM | > 100 µM | > 100 µM | – | – | – | – | – | – | – | – | –
12 | O=CCCn1[nH]c(=O)ccc1=O | > 100 µM | > 100 µM | – | > 100 µM | > 100 µM | > 100 µM | > 100 µM | > 100 µM | > 100 µM | – | – | – | – | – | – | – | – | –
13 | O=C(O)c1cnc2c(ccc3[nH]cccc32)c1=O | – | > 100 µM | > 100 µM | > 100 µM | > 100 µM | – | > 100 µM | > 100 µM | > 100 µM | – | – | – | – | – | – | – | – | –
14 | CC(=O)N1c2ccccc2N(C(C)=O)C1c1ccc(C2N(C(C)=O)c3ccccc3N2C(C)=O)[nH]1 | > 100 µM | > 100 µM | > 100 µM | > 100 µM | > 100 µM | > 100 µM | > 100 µM | > 100 µM | > 100 µM | – | – | – | – | – | – | – | – | –
15 | O=CN/C=C/c1ccccc1 | > 100 µM | > 100 µM | > 100 µM | > 100 µM | > 100 µM | > 100 µM | > 100 µM | > 100 µM | > 100 µM | – | – | – | – | – | – | – | – | –
16 | C[C@@H]1CC[C@@]2(C)OC(c3ccccc3)[C@H](CO)N2C1=O (stereo partly drawn) | > 100 µM | – | > 100 µM | > 100 µM | > 100 µM | – | – | > 100 µM | > 100 µM | – | – | – | – | – | – | – | – | –
17 | CCCN(CCC)c1ccc(/C=N/NC(=O)c2cccnc2)c(C)c1 | 24.8 µM | 32.1 µM | 24.5 µM | 42.2 µM | 36.1 µM | 26.3 µM | 52.3 µM | 29.3 µM | 24.6 µM | 12.3 µM | 11.4 µM | 14.3 µM | 11.9 µM | 18.6 µM | 12.5 µM | 12 µM | 13.8 µM | 16.4 µM
18 | COc1ccc2cc3c4cc(OC)c(OC)cc4ccn3c2c1 | > 100 µM | > 100 µM | > 100 µM | > 100 µM | – | > 100 µM | > 100 µM | – | > 100 µM | – | – | – | – | – | – | – | – | –
19 | O=S1Nc2cccc(C(F)(F)F)c2S1 (stereo not drawn) | > 100 µM | 64.4 µM | 59.9 µM | > 100 µM | 82.8 µM | > 100 µM | 29.3 µM | > 100 µM | > 100 µM | – | – | – | – | – | – | – | – | –
20 | O/N=C1/CCCC/C1=C\c1ccc(Cl)c(Cl)c1 | – | 75.3 µM | – | > 100 µM | 60.1 µM | – | 59.7 µM | 35.8 µM | > 100 µM | – | – | – | – | – | – | – | – | –
